Where two headings read alike, the source gives them in different places.
Target: T1, CYP4A (Homo sapiens, UniProt Q02928)
T1 construct: purchased; host or cells: bacterial membranes ('bactosome')
T1 sequence (Q02928 5-519): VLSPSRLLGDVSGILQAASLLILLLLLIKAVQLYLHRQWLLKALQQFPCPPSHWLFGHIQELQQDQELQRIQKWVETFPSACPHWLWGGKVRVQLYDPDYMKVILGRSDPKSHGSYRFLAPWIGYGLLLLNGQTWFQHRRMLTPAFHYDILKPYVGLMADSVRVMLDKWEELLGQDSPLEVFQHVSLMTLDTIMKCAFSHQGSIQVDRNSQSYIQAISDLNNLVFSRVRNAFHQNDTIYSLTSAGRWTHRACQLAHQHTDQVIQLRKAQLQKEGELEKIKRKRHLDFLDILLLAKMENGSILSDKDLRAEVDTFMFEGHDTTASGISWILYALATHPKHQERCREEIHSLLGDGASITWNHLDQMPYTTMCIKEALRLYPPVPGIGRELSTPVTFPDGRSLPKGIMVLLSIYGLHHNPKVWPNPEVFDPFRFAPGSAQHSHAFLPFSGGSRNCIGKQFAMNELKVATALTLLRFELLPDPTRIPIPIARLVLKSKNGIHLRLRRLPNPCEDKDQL
Experiment: CYP4A enzyme assay (luminescence, Luciferin-ME)
Type: biochemical
Conditions: Compound concentration 5 μM
Method in brief: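 Compounds (5 μM) were preincubated 15 min at room temperature with CYP4A bactosomes in 100 mM KPO4, 0.1% BSA, 1 mM DTT. Reaction ran 30 min at room temperature after adding 5 mM Luciferin-ME and NADPH regeneration system. Luminescence after 15 min with detection reagent; inhibition judged by comparing well signals.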

[1] = 50%-70%, read-out: % Inhibition 50%-70%
[2] = 70%-90%, read-out: % Inhibition 70%-90%
[3] = Greater than 90%, read-out: % Inhibition Greater than 90%

An inhibition at 5 µM [1] of 50 to 70% was found for `Cc1cc(N2CCN(C(=O)C3CCCN(C(=O)c4ccncc4)C3)CC2)c2ccccc2n1` (stereo not shown) [Example 104, (1-isonicotinoylpiperidin-3-yl)(4-(2-methylquinolin-4-yl)piperazin-1-yl)methanone] in this work.
An inhibition at 5 µM [2] of 70 to 90% was found for `Nc1cccc(S(=O)(=O)N2CC(C(=O)N3CCN(c4ccnc5cc(F)ccc45)CC3)C2)c1` [Example 72, (1-((3-aminophenyl)sulfonyl)azetidin-3-yl)(4-(7-fluoroquinolin-4-yl)piperazin-1-yl)methanone] in this work.
An inhibition at 5 µM [3] of over 90% was found for `CC(C)(C)c1n[nH]c(S(=O)(=O)N2CCC(C(=O)N3CCN(c4ccnc5cc(F)ccc45)CC3)C2)n1` (stereo not shown) [Example 20, (1-((5-(tert-butyl)-4H-1,2,4-triazol-3-yl)sulfonyl)pyrrolidin-3-yl)(4-(7-fluoroquinolin-4-yl)piperazin-1-yl)methanone] in this work.
An inhibition at 5 µM [3] of over 90% was found for `O=C(C1CCN(S(=O)(=O)c2cccc(F)n2)C1)N1CCN(c2ccnc3ccccc23)CC1` (stereo not shown) [Example 52, (1-((6-fluoropyridin-2-yl)sulfonyl)pyrrolidin-3-yl)(4-(quinolin-4-yl)piperazin-1-yl)methanone] in this work.
An inhibition at 5 µM [2] of 70 to 90% was found for `NCCn1cnc(S(=O)(=O)N2CC[C@H](C(=O)N3CCN(c4ccnc5cc(F)ccc45)CC3)C2)n1` [Example 144, (S)-(1-((1-(2-aminoethyl)-1H-1,2,4-triazol-3-yl)sulfonyl)pyrrolidin-3-yl)(4-(7-fluoroquinolin-4-yl)piperazin-1-yl)methanone] in this work.
An inhibition at 5 µM [3] of over 90% was found for `O=C(C1CCN(S(=O)(=O)c2ccc(-c3ccncc3)cc2)C1)N1CCN(c2ccnc3cc(F)ccc23)CC1` (stereo not shown) [Example 17, (4-(7-fluoroquinolin-4-yl)piperazin-1-yl)(1-((4-(pyridin-4-yl)phenyl)sulfonyl)pyrrolidin-3-yl)methanone] in this work.
An inhibition at 5 µM [3] of over 90% was found for `Cn1cncc1S(=O)(=O)N1CCC(C(=O)N2CCN(c3ccnc4cc(F)ccc34)CC2)C1` (stereo not shown) [Example 14, (4-(7-fluoroquinolin-4-yl)piperazin-1-yl)(1-((1-methyl-1H-imidazol-5-yl)sulfonyl)pyrrolidin-3-yl)methanone] in this work.
An inhibition at 5 µM [3] of over 90% was found for `CC(=O)Nc1ccc(S(=O)(=O)N2CC[C@@H](C(=O)N3CCN(c4ccnc5ccccc45)CC3)C2)cc1` [Example 22, (R)—N-(4-((3-(4-(quinolin-4-yl)piperazine-1-carbonyl)pyrrolidin-1-yl)sulfonyl)phenyl)acetamide] in this work.
An inhibition at 5 µM [1] of 50 to 70% was found for `O=C(C1CCCN(S(=O)(=O)C2CC2)C1)N1CCN(c2ccnc3cc(F)ccc23)CC1` (stereo not shown) [Example 119, (1-(cyclopropylsulfonyl)piperidin-3-yl)(4-(7-fluoroquinolin-4-yl)piperazin-1-yl)methanone] in this work.
An inhibition at 5 µM [2] of 70 to 90% was found for `O=C(C1CCN(S(=O)(=O)c2ccc(Cl)nc2)C1)N1CCN(c2ccnc3ccccc23)CC1` (stereo not shown) [Example 24, (1-((6-chloropyridin-3-yl)sulfonyl)pyrrolidin-3-yl)(4-(quinolin-4-yl)piperazin-1-yl)methanone] in this work.
An inhibition at 5 µM [3] of over 90% was found for `CC(=O)Nc1nc(C)c(S(=O)(=O)N2CC[C@@H](C(=O)N3CCN(c4ccnc5ccccc45)CC3)C2)s1` [Example 48, (R)—N-(4-methyl-5-((3-(4-(quinolin-4-yl)piperazine-1-carbonyl)pyrrolidin-1-yl)sulfonyl)thiazol-2-yl)acetamide] in this work.
An inhibition at 5 µM [2] of 70 to 90% was found for `O=C(C1CCN(S(=O)(=O)c2ccc(Br)cc2)CC1)N1CCN(c2ccnc3cc(F)ccc23)CC1` [Example 56, (1-((4-bromophenyl)sulfonyl)piperidin-4-yl)(4-(7-fluoroquinolin-4-yl)piperazin-1-yl)methanone] in this work.
An inhibition at 5 µM [3] of over 90% was found for `COc1ccc2c(N3CCN(C(=O)[C@H]4CCN(S(=O)(=O)c5ncn[nH]5)C4)CC3)ccnc2c1` [Example 165, (S)-(1-((1H-1,2,4-triazol-5-yl)sulfonyl)pyrrolidin-3-yl)(4-(7-methoxyquinolin-4-yl)piperazin-1-yl)methanone] in this work.
An inhibition at 5 µM (Less than 50%, read-out: % Inhibition Less than 50%) of under 50% was found for `O=C(C1CCCN(C(=O)C2CCCCC2)C1)N1CCN(c2ccnc3ccccc23)CC1` (stereo not shown) [Example 114, (1-(cyclohexylcarbonyl)piperidin-3-yl)(4-(quinolin-4-yl)piperazin-1-yl)methanone] in this work.
An inhibition at 5 µM [3] of over 90% was found for `O=C([C@H]1CCN(S(=O)(=O)c2ncn[nH]2)C1)N1CCN(c2ccnc3ccc(F)cc23)CC1` [Example 136, (S)-(1-((1H-1,2,4-triazol-5-yl)sulfonyl)pyrrolidin-3-yl)(4-(6-fluoroquinolin-4-yl)piperazin-1-yl)methanone] in this work.
An inhibition at 5 µM [1] of 50 to 70% was found for `O=C(C1CCCN(S(=O)(=O)CCCO)C1)N1CCN(c2ccnc3ccccc23)CC1` (stereo not shown) [Example 133, (1-((3-hydroxypropyl)sulfonyl)piperidin-3-yl)(4-(quinolin-4-yl)piperazin-1-yl)methanone] in this work.
An inhibition at 5 µM [3] of over 90% was found for `O=C([C@H]1CCN(S(=O)(=O)c2ccc([N+](=O)[O-])cc2)C1)N1CCN(c2ccnc3cc(F)ccc23)CC1` [Example 158, (S)-(4-(7-fluoroquinolin-4-yl)piperazin-1-yl)(1-((4-nitrophenyl)sulfonyl)pyrrolidin-3-yl)methanone] in this work.
An inhibition at 5 µM [3] of over 90% was found for `O=C(C1CCN(S(=O)(=O)c2ncn[nH]2)C1)N1CCN(c2ccnc3ccccc23)CC1` (stereo not shown) [Example 43, (1-((1H-1,2,4-triazol-5-yl)sulfonyl)pyrrolidin-3-yl)(4-(quinolin-4-yl)piperazin-1-yl)methanone] in this work.
An inhibition at 5 µM [2] of 70 to 90% was found for `O=C(c1ccc(F)cc1)N1CCCC(C(=O)N2CCN(c3ccnc4cc(Cl)ccc34)CC2)C1` (stereo not shown) [Example 84, (4-(7-chloroquinolin-4-yl)piperazin-1-yl)(1-(4-fluorophenylcarbonyl)piperidin-3-yl)methanone] in this work.
An inhibition at 5 µM [3] of over 90% was found for `CC(=O)Nc1ccc(S(=O)(=O)N2CC[C@H](C(=O)N3CCN(c4ccnc5ccccc45)CC3)C2)cc1` [Example 23, (S)—N-(4-((3-(4-(quinolin-4-yl)piperazine-1-carbonyl)pyrrolidin-1-yl)sulfonyl)phenyl)acetamide] in this work.
An inhibition at 5 µM [1] of 50 to 70% was found for `CC(=O)Nc1ccc(S(=O)(=O)N2CCCC(C(=O)N3CCN(c4nc(C)nc5ccccc45)CC3)C2)cc1` (stereo not shown) [Example 79, N-(4-(3-(1-(2-methylquinazolin-4-yl)piperazine-4-carbonyl)piperidin-1-ylsulfonyl)phenyl)acetamide] in this work.
An inhibition at 5 µM [1] of 50 to 70% was found for `Cc1nc(N2CCN(C(=O)C3CCCN(S(=O)(=O)c4ccc(N(C)C)cc4)C3)CC2)c2ccccc2n1` (stereo not shown) [Example 82, (1-(4-(dimethylamino)phenylsulfonyl)piperidin-3-yl)(4-(2-methylquinazolin-4-yl)piperazin-1-yl)methanone] in this work.
An inhibition at 5 µM [1] of 50 to 70% was found for `O=C(C1CCCN(S(=O)(=O)CCCO)C1)N1CCN(c2ccnc3cc(F)ccc23)CC1` (stereo not shown) [Example 131, (4-(7-fluoroquinolin-4-yl)piperazin-1-yl)(1-((3-hydroxypropyl)sulfonyl)piperidin-3-yl)methanone] in this work.
An inhibition at 5 µM [3] of over 90% was found for `O=C(C1CCN(S(=O)(=O)c2ccc(O)cc2)C1)N1CCN(c2ccnc3cc(F)ccc23)CC1` (stereo not shown) [Example 4, (4-(7-fluoroquinolin-4-yl)piperazin-1-yl)(1-((4-hydroxyphenyl)sulfonyl)pyrrolidin-3-yl)methanone] in this work.
An inhibition at 5 µM [3] of over 90% was found for `Cn1ccnc1S(=O)(=O)N1CCCC(C(=O)N2CCN(c3ccnc4ccccc34)CC2)C1` (stereo not shown) [Example 120, (1-(1-methyl-1H-imidazol-2-ylsulfonyl)piperidin-3-yl)(4-(quinolin-4-yl)piperazin-1-yl)methanone] in this work.

From US12612384B2, “Heterocyclic CYP4A inhibitor compounds and compositions thereof” (MBD CO., LTD., priority 2021, dated 2026)
